According to patent US20250179000A1 (Sanford Burnham Prebys Medical Discovery Institute, priority 2021, published 2025):

Key:
Format in all cases: cell-based
Human mGlu3 = Human mGlu3 (Homo sapiens, UniProt Q14832); assay: mGlu receptor in vitro assay, human mGlu3
Protocol: (§1) Human Embryonic Kidney (HEK-293) cell lines co-expressing rat mGlu receptors 2, 3, 4, 6, 7 or 8 and G protein-coupled inwardly-rectifying potassium (GIRK) channels were grown in Growth Media containing 45% DMEM, 45% F-12, 10% FBS, 20 mM HEPES, 2 mM L-glutamine, antibiotic/antimycotic, non-essential amino acids, 700 μg/mL G418, and 0.6 μg/ml puromycin at 37° C. in the presence of 5% CO2. […] All cell culture reagents were purchased from Invitrogen Corp. (Carlsbad, CA) unless otherwise noted. Calcium assays were used to assess activity of compounds at mGlu1 and mGlu5, as previously described in Engers et al (J. Med. Chem. 2009, 52, 4115-4118). Calcium assays at mGlu3 were performed as described for mGlu5 with the exception that TREx293 mGlu3 Gα15 cells were treated with tetracycline at 20 ng/mL for 20 h prior to assay.
(§2) Briefly, cells were plated into 384-well, black-walled, clear-bottomed poly-D-lysine-coated plates at a density of 15,000 cells/20 μL/well in DMEM containing 10% dialyzed FBS, 20 mM HEPES, and 100 units/mL penicillin/streptomycin (assay media). Plated cells were incubated overnight at 37° C. in the presence of 5% CO2. The following day, the medium was exchanged from the cells to assay buffer [Hanks' balanced salt solution (Invitrogen) containing 20 mM HEPES, pH 7.3] using an ELX405 microplate washer (BioTek), leaving 20 μL/well, followed by the addition of 20 μL/well FluoZin2-AM (330 nM final concentration) indicator dye (Invitrogen; prepared as a stock in DMSO and mixed in a 1:1 ratio with Pluronic acid F-127) in assay buffer. Cells were incubated for 1 h at room temperature, and the dye exchanged to assay buffer using an ELX405, leaving 20 μL/well. Test compounds were diluted to 2 times their final desired concentration in assay buffer (0.3% DMSO final concentration). Agonists were diluted in thallium buffer [125 mM sodium bicarbonate (added fresh the morning of the experiment), 1 mM magnesium sulfate, 1.8 mM calcium sulfate, 5 mM glucose, 12 mM thallium sulfate, and 10 mM HEPES, pH 7.3] at 5 times the final concentration to be assayed. Cell plates and compound plates were loaded onto a kinetic imaging plate reader (FDSS 6000 or 7000; Hamamatsu Corporation, Bridgewater, NJ). Appropriate baseline readings were taken (10 images at 1 Hz; excitation, 470±20 nm; emission, 540±30 nm) and test compounds were added in a 20 μL volume and incubated for approximately 2.5 min before the addition of 10 μL of thallium buffer with or without agonist. After the addition of agonist, data were collected for approximately an additional 2.5 min. Data were analyzed using Excel (Microsoft Corp, Redmond, WA). The slope of the fluorescence increase beginning 5 s after thallium/agonist addition and ending 15 s after thallium/agonist addition was calculated, corrected to vehicle and maximal agonist control slope values, and plotted in using either XLfit (ID Business Solutions Ltd) or Prism software (GraphPad Software, San Diego, CA) to generate concentration-response curves. Potencies were calculated from fits using a four-point parameter logistic equation. For concentration-response curve experiments, compounds were serially diluted 1:3 into 10-point concentration response curves and were transferred to daughter plates using an Echo acoustic plate reformatter (Labcyte, Sunnyvale, CA). Test compounds were applied and followed by EC20 concentrations of glutamate.

Human mGlu2 = Human mGlu2 (Homo sapiens, UniProt Q14416); assay: mGlu receptor in vitro assay, human mGlu2
Human mGlu2, sequence (Q14416 19-872): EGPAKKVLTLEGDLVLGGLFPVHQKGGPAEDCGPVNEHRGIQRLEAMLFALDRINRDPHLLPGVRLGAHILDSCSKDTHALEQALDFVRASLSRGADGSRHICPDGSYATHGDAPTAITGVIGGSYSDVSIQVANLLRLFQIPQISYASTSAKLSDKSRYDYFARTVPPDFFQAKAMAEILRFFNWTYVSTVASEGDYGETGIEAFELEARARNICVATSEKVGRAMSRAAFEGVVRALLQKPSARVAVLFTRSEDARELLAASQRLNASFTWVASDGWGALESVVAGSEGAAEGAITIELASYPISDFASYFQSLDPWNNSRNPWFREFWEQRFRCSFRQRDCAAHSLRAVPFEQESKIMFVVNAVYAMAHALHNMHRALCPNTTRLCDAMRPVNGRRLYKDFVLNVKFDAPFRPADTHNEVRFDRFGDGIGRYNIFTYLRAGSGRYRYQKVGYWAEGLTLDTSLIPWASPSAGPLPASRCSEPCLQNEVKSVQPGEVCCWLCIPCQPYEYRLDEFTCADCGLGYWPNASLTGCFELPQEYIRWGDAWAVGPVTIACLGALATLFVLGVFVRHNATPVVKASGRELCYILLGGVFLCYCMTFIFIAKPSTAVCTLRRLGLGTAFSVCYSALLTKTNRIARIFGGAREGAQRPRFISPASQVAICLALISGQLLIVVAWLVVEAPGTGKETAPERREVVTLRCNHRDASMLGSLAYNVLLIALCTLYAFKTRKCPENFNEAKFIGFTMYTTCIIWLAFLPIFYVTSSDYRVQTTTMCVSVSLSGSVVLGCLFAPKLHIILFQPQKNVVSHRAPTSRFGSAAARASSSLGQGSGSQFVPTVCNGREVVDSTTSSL

Rat mGlu2 = molecular target: T1, Rat mGlu2 (Rattus norvegicus, UniProt P31421); assay: mGlu receptor in vitro assay, thallium flux through GIRK channels, rat mGlu2; details: PAM potency with EC20 glutamate
T1 construct: expressed in transfected cells; host or cells: HEK-293 co-expressing GIRK channels
T1 sequence (P31421 19-872): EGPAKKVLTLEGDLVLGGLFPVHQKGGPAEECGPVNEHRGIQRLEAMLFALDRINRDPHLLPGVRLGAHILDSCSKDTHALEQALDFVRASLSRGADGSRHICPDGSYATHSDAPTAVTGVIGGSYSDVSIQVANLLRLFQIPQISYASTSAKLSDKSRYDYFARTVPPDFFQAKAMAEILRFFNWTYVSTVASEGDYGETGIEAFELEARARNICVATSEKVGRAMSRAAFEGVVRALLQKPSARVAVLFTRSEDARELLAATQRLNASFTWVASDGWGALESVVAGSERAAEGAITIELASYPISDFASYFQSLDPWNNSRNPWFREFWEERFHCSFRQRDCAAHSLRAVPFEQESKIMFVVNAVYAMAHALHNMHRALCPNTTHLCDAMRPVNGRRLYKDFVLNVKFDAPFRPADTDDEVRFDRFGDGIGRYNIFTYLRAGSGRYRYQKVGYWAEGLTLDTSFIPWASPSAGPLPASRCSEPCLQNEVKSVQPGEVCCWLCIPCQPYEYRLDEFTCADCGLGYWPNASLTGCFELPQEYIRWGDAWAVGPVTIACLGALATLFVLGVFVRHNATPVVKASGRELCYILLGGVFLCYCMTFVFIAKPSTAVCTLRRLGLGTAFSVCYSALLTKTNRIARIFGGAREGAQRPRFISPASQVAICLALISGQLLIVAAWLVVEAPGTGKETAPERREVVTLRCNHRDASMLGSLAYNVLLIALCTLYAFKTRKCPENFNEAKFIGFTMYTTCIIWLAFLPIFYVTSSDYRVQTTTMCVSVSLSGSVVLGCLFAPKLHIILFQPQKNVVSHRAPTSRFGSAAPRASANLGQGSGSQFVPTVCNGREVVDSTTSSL
Protocol: as §1
as §2, with “Compound activity at the group II (mGlu2 and mGlu3) and group III (mGlu4, mGlu6, mGlu7, and mGlu8) was assessed using thallium flux through GIRK channels, a method that has been described in detail. Briefly,” for “Briefly,”

Rat mGlu3 = molecular target: T2, Rat mGlu3 (Rattus norvegicus, UniProt P31422); assay: mGlu receptor in vitro assay (thallium flux through GIRK channels / calcium assay), rat mGlu3; details: PAM potency with EC20 glutamate
T2 construct: expressed in transfected cells; host or cells: HEK-293 co-expressing GIRK channels
T2 sequence (P31422 23-879): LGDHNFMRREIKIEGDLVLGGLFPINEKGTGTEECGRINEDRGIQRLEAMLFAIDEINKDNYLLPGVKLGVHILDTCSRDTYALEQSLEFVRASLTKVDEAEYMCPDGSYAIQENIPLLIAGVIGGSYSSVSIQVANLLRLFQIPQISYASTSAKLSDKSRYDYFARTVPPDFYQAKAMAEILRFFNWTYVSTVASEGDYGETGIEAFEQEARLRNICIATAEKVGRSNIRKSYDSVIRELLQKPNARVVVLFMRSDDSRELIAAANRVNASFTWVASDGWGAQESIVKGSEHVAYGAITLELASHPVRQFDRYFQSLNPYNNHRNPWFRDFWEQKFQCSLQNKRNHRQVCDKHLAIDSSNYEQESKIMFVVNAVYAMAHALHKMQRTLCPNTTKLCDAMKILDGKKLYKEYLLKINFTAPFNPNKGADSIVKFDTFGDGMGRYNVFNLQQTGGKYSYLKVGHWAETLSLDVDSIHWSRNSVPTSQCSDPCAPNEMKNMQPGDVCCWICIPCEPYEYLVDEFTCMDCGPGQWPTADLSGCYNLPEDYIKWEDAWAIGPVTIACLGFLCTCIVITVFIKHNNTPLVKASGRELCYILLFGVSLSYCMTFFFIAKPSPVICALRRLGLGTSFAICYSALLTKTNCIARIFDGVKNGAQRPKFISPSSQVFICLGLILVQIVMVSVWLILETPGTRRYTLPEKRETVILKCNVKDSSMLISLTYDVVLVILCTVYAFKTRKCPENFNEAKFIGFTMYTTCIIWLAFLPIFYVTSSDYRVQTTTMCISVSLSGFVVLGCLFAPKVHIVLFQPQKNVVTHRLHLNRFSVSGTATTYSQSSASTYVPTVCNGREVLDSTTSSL
Protocol: as §1
as §2, with “Compound activity at the group II (mGlu2 and mGlu3) and group III (mGlu4, mGlu6, mGlu7, and mGlu8) was assessed using thallium flux through GIRK channels, a method that has been described in detail. Briefly,” for “Briefly,”

Human mGlu3, sequence (Q14832 23-879): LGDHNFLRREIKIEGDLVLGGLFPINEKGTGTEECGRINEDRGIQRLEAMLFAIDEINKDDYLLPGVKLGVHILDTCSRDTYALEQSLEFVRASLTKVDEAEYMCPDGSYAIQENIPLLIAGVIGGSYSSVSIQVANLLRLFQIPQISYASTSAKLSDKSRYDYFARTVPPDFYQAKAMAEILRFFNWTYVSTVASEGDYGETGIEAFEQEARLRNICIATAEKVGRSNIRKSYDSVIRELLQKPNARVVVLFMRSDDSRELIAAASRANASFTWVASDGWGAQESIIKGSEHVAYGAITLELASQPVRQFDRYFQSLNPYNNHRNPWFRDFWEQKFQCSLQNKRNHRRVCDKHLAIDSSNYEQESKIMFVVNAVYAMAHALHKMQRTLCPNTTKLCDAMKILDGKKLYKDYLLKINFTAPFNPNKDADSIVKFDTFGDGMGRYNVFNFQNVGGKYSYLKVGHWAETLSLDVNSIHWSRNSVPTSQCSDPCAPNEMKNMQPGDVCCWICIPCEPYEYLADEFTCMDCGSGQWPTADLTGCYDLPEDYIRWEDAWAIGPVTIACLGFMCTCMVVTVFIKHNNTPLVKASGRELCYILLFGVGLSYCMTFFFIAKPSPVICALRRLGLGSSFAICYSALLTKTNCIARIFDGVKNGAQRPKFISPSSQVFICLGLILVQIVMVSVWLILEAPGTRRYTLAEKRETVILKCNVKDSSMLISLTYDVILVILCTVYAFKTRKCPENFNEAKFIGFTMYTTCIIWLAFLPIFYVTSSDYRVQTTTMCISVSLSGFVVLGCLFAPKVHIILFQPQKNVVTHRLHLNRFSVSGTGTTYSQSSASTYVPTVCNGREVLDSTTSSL

EC50 (Human mGlu3)	EC50 (Human mGlu2)	EC50 (Rat mGlu2)	EC50 (Rat mGlu3)	Structure (SMILES)
1600 nM	1170 nM			COc1cccc(C(=O)c2ccc(OCc3cccc(-c4cccc(C(=O)O)c4)c3)c(C)c2O)c1 [compound 62, 3′-((3-Hydroxy-4-(3-methoxybenzoyl)-2-methylphenoxy)methyl)-[1,1′-biphenyl]-3-carboxylic acid]
685 nM	2030 nM			COc1ccccc1C(=O)c1ccc(OCc2cnc(-c3cccc(C(=O)O)c3)cn2)c(C)c1O [compound 73, 3-(5-((3-Hydroxy-4-(2-methoxybenzoyl)-2-methylphenoxy)methyl)pyrazin-2-yl)benzoic acid]
1650 nM	924 nM			Cc1c(OCc2cccc(-c3cccc(C(=O)O)c3)c2)ccc(C(=O)c2ccc(F)cc2)c1O [compound 74, 3′-((4-(4-Fluorobenzoyl)-3-hydroxy-2-methylphenoxy)methyl)-[1,1′-biphenyl]-3-carboxylic acid]
1340 nM	2710 nM			COc1cccc(C(=O)c2ccc(OCc3cnc(-c4cccc(C(=O)O)c4)cn3)c(C)c2O)c1 [compound 75, 3-(5-((3-Hydroxy-4-(3-methoxybenzoyl)-2-methylphenoxy)methyl)pyrazin-2-yl)benzoic acid]
> 10000 nM	119 nM			Cc1c(OCc2nc(-c3cccc(C(=O)O)c3)no2)ccc(C(=O)C2CC2)c1O [compound 77, 3-(5-((4-(Cyclopropanecarbonyl)-3-hydroxy-2-methylphenoxy)methyl)-1,2,4-oxadiazol-3-yl)benzoic acid]
		> 10000 nM	> 30000 nM	Cc1c(OCc2cnc(-c3cccc(-c4nsc(=O)[nH]4)c3)cn2)ccc(C(=O)CC(C)(C)C)c1O [compound 125, 3-(3-(5-((4-(3,3-Dimethylbutanoyl)-3-hydroxy-2-methylphenoxy)methyl)pyrazin-2-yl)phenyl)-1,2,4-thiadiazol-5(4H)-one]
		> 10000 nM	2140 nM	Cc1c(OCc2cnc(-c3cccc(C(=O)NS(C)(=O)=O)c3)cn2)ccc(C(=O)CC(C)(C)C)c1O [compound 126, 3-(5-((4-(3,3-Dimethylbutanoyl)-3-hydroxy-2-methylphenoxy)methyl)pyrazin-2-yl)-N-(methylsulfonyl)benzamide]
		129 nM	53 nM	COc1c(C(=O)O)cccc1-c1cnc(COc2ccc(C(=O)CC(C)(C)C)c(O)c2C)cn1 [compound 136, 3-(5-((4-(3,3-Dimethylbutanoyl)-3-hydroxy-2-methylphenoxy)methyl)pyrazin-2-yl)-2-methoxybenzoic acid]
		200 nM	1030 nM	Cc1c(OCc2cccc(-c3cccc(C(=O)O)c3)c2)ccc(C(=O)Cc2ccccc2)c1O [compound 161, 3′-((3-Hydroxy-2-methyl-4-(2-phenylacetyl)phenoxy)methyl)-[1,1′-biphenyl]-3-carboxylic acid]

More lines, now with the values behind:

Structure (SMILES)	EC50 (Human mGlu3)	EC50 (Human mGlu2)	EC50 (Rat mGlu2)	EC50 (Rat mGlu3)
COc1ccc(C(=O)O)cc1CCCCCOc1ccc(C(=O)CC(C)(C)C)c(O)c1C [Example 3, 3-(5-(4-(3,3-Dimethylbutanoyl)-3-hydroxy-2-methylphenoxy)pentyl)-4-methoxybenzoic acid]	750 nM	1350 nM		
COc1ccc(C(=O)O)cc1OCCCCCCCCOc1ccc(C(=O)CC(C)(C)C)c(O)c1C [Example 18, 3-{8-[4-(3,3-Dimethylbutanoyl)-3-hydroxy-2-methylphenoxy]octyloxy}-4-methoxybenzoic acid]	> 10000 nM	882 nM		
COc1ccc(C(=O)O)cc1OCCCCCCCOc1ccc(C(=O)CC(C)(C)C)c(O)c1C [Example 20, 3-{7-[4-(3,3-Dimethylbutanoyl)-3-hydroxy-2-methylphenoxy]heptyloxy}-4-methoxybenzoic acid]	1060 nM	334 nM		
COc1ccc(C(=O)O)cc1OCCCCCCCCCOc1ccc(C(=O)CC(C)(C)C)c(O)c1C [Example 27, 3-{9-[4-(3,3-Dimethylbutanoyl)-3-hydroxy-2-methylphenoxy]nonyloxy}-4-methoxybenzoic acid]	1120 nM	710 nM		
COc1ccc(C(=O)O)cc1OCCCCCCCCCCOc1ccc(C(=O)CC(C)(C)C)c(O)c1C [Example 28, 3-{10-[4-(3,3-Dimethylbutanoyl)-3-hydroxy-2-methylphenoxy]decyloxy}-4-methoxybenzoic acid]	995 nM	415 nM		
COc1ccc(C(=O)O)cc1OCCN(CCOc1ccc(C(=O)CC(C)(C)C)c(O)c1C)S(=O)(=O)c1ccc(C)cc1 [Example 31, 3-[2-({2-[4-(3,3-Dimethylbutanoyl)-3-hydroxy-2-methylphenoxy]ethyl}[(4-methylphenyl)sulfonyl]amino)ethoxy]-4-methoxybenzoic acid]	> 30000 nM	373 nM		
[2H]/C(=C(/[2H])C([2H])([2H])Oc1ccc(C(=O)CCC)c(O)c1C)C([2H])([2H])Oc1cccc(C(=O)O)c1C [Example 58, (E)-3-((4-(4-Butyryl-3-hydroxy-2-methylphenoxy)but-2-en-1-yl-1,1,2,3,4,4-d6)oxy)-2-methylbenzoic acid]	540 nM	8 nM		
COc1ccc(C(=O)c2ccc(OCCCCOc3cc(C(=O)O)ccc3OC)c(C)c2O)cc1 [compound 63, 3-(4-(3-Hydroxy-4-(4-methoxybenzoyl)-2-methylphenoxy)butoxy)-4-methoxybenzoic acid]	557 nM	507 nM		
COc1ccc(C(=O)O)cc1OCCCCOc1ccc(C(=O)c2ccc(C(C)(C)C)cc2)c(O)c1C [compound 76, 3-[4-(4-{[4-(tert-Butyl)phenyl]carbonyl}-3-hydroxy-2-methylphenoxy)butoxy]-4-methoxybenzoic acid]	> 10000 nM	> 10000 nM		
